Row | Structure (SMILES) | melting point
1 | CC(=O)Nc1ccc(C#CCCN2CC=C(c3ccccc3)CC2)cc1 | 172 to 173 °C
2 | CN(C)C1(Cc2ccccc2)CCC(c2[nH]c3ccccc3c2CC2CCCCC2)CC1 (stereo unspecified) | 120 to 126 °C
3 | CCCCc1sc2ccccc2c1-c1ccc(-c2ccc(OC(C(=O)O)c3ccccc3)cc2)cc1 (stereo unspecified) | 157 to 159 °C
4 | O=C(C=Cc1cccc(S(=O)(=O)Nc2ccc3ccccc3c2)c1)NO | 164 °C
5 | O=CC(=Cc1ccc(O)cc1)C(C=O)=Cc1ccc(O)cc1 | 244 to 246 °C
6 | CCOC(=O)C(NC(=O)C[N+](=O)[O-])C(=O)OCC | 118 to 121 °C
7 | CC(=O)CC(=O)NCC#N | 63 to 65 °C
8 | CNC(=O)C(=NOC)c1ccccc1COc1ccc2c(c1)OCC2=NOC | 143 to 145 °C
9 | Nc1nc(F)cc(F)n1 | 193 to 196 °C
10 | FC(F)(F)C1(c2cc(Cl)cc(Cl)c2)CC(c2ccc(CBr)c(Cl)c2)=NO1 (stereo unspecified) | 94 to 97 °C
11 | Cc1scc(C2=NOCCO2)c1S(=O)(=O)NC(=O)n1nc(OC(C)C)n(C)c1=O | 199 °C
12 | CN(C)C(=O)c1cc(-c2ccccc2)c(=O)n2c1-c1cc(Cl)ccc1CN2 | 250 to 252 °C
13 | Nc1ccccc1CCN1CCN(c2nsc3ccccc23)CC1 | 149 °C
14 | O=C(NC1CCN(CCc2ccccc2F)C1)C12CC3CC(CC(C3)C1)C2 (stereo unspecified) | 106 to 108 °C
15 | Clc1nc(-c2ccncc2)cs1 | 124 to 125 °C
16 | O=c1cc(Oc2cccc(OCc3ccccc3)c2)c2ccccc2[nH]1 | 262 to 265 °C
17 | CCCCNC(=O)OCCCc1ccc(OCCOC)cc1Oc1ncc(C(F)(F)F)cc1Cl | 91.7 to 91.8 °C
18 | CN(C)C=Nc1c(-c2c(F)cc(F)cc2F)c(Cl)nc2ncnn12 | 188 to 190 °C
19 | CCOC(=O)N[C@@H]1Cc2ccccc2[C@H]1Cl (relative stereo) | 82 to 84 °C
20 | CC(=O)N[C@H]1CC[C@H](ON2C(=O)c3ccccc3C2=O)CC1 | 210 to 213 °C
21 | COc1ccc2c(c1)[C@H](c1ccccc1)CN(C)CC2 | 50 to 51 °C
22 | CC12C=CC(=O)C(N)=C1CCC1C2CCC2(C)C(=O)CCC12 (stereo unspecified) | 162 to 169 °C
23 | NS(=O)(=O)c1ccc(-c2noc(-c3cnn4c(C5CC5)cc(-c5ccc(C(F)(F)F)cc5)nc34)n2)s1 | 290 °C
24 | CCS(=O)(=O)Cc1cccc(-c2nc(=O)c3ccccc3s2)n1 | 188 to 190 °C
25 | CC(=O)Oc1ccc(C(=O)c2nc3ccc(OC(C)=O)cc3s2)cc1 | 183 °C
26 | OC1CC=C(c2ccc(C(F)(F)F)cc2)CC1 (stereo unspecified) | 104 to 106 °C
27 | O=C(O)c1cn(C2CC2)c2cc(-c3ccncc3)ccc2c1=O | 278 to 281 °C

The next lines start with the values.

Row | melting point | Structure (SMILES)
28 | 161 to 162 °C | COCn1ccnc1C(O)(c1ccccc1)c1ccc(Cl)cc1Cl (stereo unspecified)
29 | 67 to 69 °C | C#CCN(CC#C)S(=O)(=O)c1cccc2c(N(C)C)cccc12
30 | 164 to 167 °C | N#Cc1c(S(=O)(=O)C(F)(F)C(F)Cl)[nH]c2ccccc12 (stereo unspecified)
31 | 172 °C | CCOC(=O)N(N)C(=O)c1cc(Cl)ccc1O
32 | 151 to 152 °C | Cc1c(NC(=O)CC(C)(C)C)cc2c(c1C)OC(C)(C)C2Nc1ccccc1 (stereo unspecified)
33 | 204 to 211 °C | COc1ncncc1NS(=O)(=O)c1cccc(Cl)c1Cl
34 | 156 to 158 °C | CCn1c(COC)nc(C(C)C)c1Sc1cc(C#N)cc(C#N)c1
35 | 217 to 222 °C | N#Cc1ccc(-c2cn(-c3ccc(C#N)cc3)c(C(O)c3ccccc3)n2)cc1 (stereo unspecified)
36 | 268 to 269 °C | COc1cccc(C(=O)Nc2nnn[nH]2)c1N
37 | 117 to 119 °C | O=c1cc(Cl)sn1-c1ccc(Cl)cc1
38 | 202 to 204 °C | CCCOc1ccc(S(=O)(=O)NCCN(C)C)cc1-c1nc2cc(N)c(N)cc2c(=O)[nH]1
39 | 94.5 to 95 °C | CC(C)(C)c1ccc(C#N)cc1N
40 | 169 to 172 °C | CN(Cc1ccc(S(C)(=O)=O)cc1)S(=O)(=O)c1cn(S(=O)(=O)N(C)C)c(C#N)n1
41 | 167 to 169 °C | Cc1cc(O)ccc1-c1cc2cc(O)ccc2o1

Source: a melting point compilation (Tetko et al.; mined from patent text by program, amines drawn as free bases though some values may be those of a salt)
